Counter-ions that a name gives are not always drawn.
Legend:
HCN2 = HCN2 (Homo sapiens (Human), UniProt Q9UL51); assay: HCN2 current assay using PatchXpress 7000A; type: cell-based; settings: PatchXpress protocol; read-out: PX HCN2 IC50
Method in brief: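 Automated patch clamp (PatchXpress 7000A) at about 22° C. HCN current taken as leak-subtracted peak inward current at the end of a step to −110 mV, with a return to −30 mV for 8 seconds. Cumulative concentrations applied 7 minutes each; amplitude normalised to control.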

HCN1 = HCN1 (Homo sapiens (Human), UniProt O60741); assay: HCN1 current assay using PatchXpress 7000A; type: cell-based; settings: PatchXpress protocol; read-out: PX HCN1 IC50
Experimental: Example 126A, Using PatchXpress 7000A
Solutions for recording HCN currents were:
The membrane voltage was then stepped back to −30 mV for a further 8 seconds.
The peak inward current measured at the end of the pulse to −110 mV (HCN1 and HCN2) or −130 mV (HCN4) was measured and any leak current subtracted to calculate the HCN current. The HCN current amplitude was measured after each control or compound addition and normalized to the control amplitude (Control A).
All experiments were performed at room temperature (approximately 22° C.).
Each test compound concentration was applied to the cell for seven (7) minutes, at which point the next cumulative concentration was applied.

HCN4 = HCN4 (Homo sapiens (Human), UniProt Q9Y3Q4); assay: HCN4 current assay using PatchXpress 7000A; type: cell-based; settings: PatchXpress protocol; read-out: PX HCN4 IC50
Method in brief: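 Peak inward current taken at end of a −130 mV pulse, leak-subtracted, and normalized to the control amplitude. Cumulative concentrations applied for 7 min each at room temperature (approximately 22° C.) on an automated patch-clamp platform.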

MDR1 (P-glycoprotein) = MDR1 (P-glycoprotein) (Homo sapiens (Human), UniProt P08183); assay: in vitro; settings: dog, MDCK-MDR1, pH 7.4
Experimental: Test compounds were added (10 μM, 0.1% DMSO final, n=2) to donor compartments of the Transwell plate assembly in assay buffer (Hanks balanced salt solution supplemented with 25 mM HEPES, adjusted to pH 7.4) for both apical to basolateral (A>B) and basolateral to apical (B>A) measurements. A parallel series of incubations were performed in the presence of the transporter inhibitor elacridar (5 μM) which was added to both compartments in the transwell plate. Incubations were performed at 37° C., with samples removed from both donor and acceptor chambers at T=0 and 1 hour for recovery assessment and compound analysed by mass spectrometry (LC-MS/MS), including an analytical internal standard.
Apparent permeability (Papp) values were determined from the relationship:
Where V is the volume of each Transwell compartment (apical 125 μL, basolateral 600 μL), and concentrations are the relative MS responses for compound (normalized to internal standard) in the donor chamber before incubation and acceptor chamber at the end of the incubation.
Area=area of cells exposed for drug transfer (0.33 cm2).
Efflux ratios (Papp B>A/Papp A>B) were calculated for each compound from the mean Papp values in each direction. […] The efflux ratios were also calculated in the same way from the runs carried out in the presence of the inhibitor. The net flux is the ratio of the efflux in the absence of inhibitor to that in the presence of inhibitor.
Lucifer Yellow (LY) was added to the apical buffer in all wells to assess viability of the cell layer.
Compound recovery from the wells was determined from MS responses (normalized to internal standard) in donor and acceptor chambers at the end of incubation compared to response in the donor chamber pre-incubation.

hNav1.5 = hNav1.5 (Homo sapiens (Human), UniProt Q14524)
Experimental: Solutions for recording Nav1.5 currents were:
Electrophysiological recordings were made from a human embryonic kidney (HEK) cell line stably expressing the full length hNav1.5. Population patch clamp measurements were made in the perforated patch clamp configuration (100 μg ml^−1 amphotericin) at room temperature (approx. 22° C.) using an IonWorks Quattro from Molecular Devices. […] Currents were first measured under control (pre-compound addition) conditions. […] Currents were measured from the depolarising step at the 15th pulse and referenced to the holding current.

hERG channel = hERG channel (Homo sapiens (Human), UniProt Q12809); assay: hERG assay using IonWorks Quattro; type: cell-based; settings: IonWorks protocol; read-out: IW hERG IC50
Experimental: Example 127A, Using IonWorks Quattro
Solutions for recording hERG currents were:
This was followed by a […] step of is to −30 mV to evoke the hERG tail current. This sequence was repeated 5 times at a frequency of 0.25 Hz (see FIG. 3). Currents were measured from the tail step at the 5th pulse and referenced to the holding current. Compounds were then incubated for 6-7 minutes prior to a second measurement of the hERG signal using an identical pulse train.

Chain of hERG channel (Q12809 whole entry): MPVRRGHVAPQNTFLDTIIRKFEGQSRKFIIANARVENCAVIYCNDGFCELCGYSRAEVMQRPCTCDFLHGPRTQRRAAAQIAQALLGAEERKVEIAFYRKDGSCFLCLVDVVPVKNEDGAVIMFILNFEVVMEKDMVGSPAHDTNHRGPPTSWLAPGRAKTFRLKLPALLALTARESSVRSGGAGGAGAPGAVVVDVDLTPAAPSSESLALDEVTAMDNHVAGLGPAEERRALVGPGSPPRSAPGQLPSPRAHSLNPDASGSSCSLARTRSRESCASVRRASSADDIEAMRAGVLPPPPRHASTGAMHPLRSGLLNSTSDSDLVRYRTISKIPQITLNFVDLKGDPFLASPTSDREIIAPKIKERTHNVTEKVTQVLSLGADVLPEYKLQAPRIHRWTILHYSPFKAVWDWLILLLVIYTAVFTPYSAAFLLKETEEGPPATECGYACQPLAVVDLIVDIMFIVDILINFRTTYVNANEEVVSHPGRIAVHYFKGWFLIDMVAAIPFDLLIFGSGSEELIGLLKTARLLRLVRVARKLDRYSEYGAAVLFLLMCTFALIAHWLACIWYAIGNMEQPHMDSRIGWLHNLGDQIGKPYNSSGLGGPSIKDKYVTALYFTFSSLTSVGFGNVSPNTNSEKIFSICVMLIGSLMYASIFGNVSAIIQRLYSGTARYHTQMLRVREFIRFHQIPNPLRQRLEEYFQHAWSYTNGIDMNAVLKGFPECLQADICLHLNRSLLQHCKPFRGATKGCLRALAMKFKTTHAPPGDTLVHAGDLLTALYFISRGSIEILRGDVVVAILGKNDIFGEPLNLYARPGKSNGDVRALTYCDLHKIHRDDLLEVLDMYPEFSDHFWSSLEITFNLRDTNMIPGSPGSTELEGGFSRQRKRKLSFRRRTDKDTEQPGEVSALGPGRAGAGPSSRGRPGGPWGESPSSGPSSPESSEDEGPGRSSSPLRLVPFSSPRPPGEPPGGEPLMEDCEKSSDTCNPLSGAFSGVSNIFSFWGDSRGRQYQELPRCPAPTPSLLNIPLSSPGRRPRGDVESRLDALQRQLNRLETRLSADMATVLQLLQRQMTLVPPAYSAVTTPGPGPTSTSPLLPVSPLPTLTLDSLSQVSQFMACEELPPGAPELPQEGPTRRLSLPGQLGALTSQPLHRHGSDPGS
Chain of HCN4 (Q9Y3Q4 whole entry, species assumed): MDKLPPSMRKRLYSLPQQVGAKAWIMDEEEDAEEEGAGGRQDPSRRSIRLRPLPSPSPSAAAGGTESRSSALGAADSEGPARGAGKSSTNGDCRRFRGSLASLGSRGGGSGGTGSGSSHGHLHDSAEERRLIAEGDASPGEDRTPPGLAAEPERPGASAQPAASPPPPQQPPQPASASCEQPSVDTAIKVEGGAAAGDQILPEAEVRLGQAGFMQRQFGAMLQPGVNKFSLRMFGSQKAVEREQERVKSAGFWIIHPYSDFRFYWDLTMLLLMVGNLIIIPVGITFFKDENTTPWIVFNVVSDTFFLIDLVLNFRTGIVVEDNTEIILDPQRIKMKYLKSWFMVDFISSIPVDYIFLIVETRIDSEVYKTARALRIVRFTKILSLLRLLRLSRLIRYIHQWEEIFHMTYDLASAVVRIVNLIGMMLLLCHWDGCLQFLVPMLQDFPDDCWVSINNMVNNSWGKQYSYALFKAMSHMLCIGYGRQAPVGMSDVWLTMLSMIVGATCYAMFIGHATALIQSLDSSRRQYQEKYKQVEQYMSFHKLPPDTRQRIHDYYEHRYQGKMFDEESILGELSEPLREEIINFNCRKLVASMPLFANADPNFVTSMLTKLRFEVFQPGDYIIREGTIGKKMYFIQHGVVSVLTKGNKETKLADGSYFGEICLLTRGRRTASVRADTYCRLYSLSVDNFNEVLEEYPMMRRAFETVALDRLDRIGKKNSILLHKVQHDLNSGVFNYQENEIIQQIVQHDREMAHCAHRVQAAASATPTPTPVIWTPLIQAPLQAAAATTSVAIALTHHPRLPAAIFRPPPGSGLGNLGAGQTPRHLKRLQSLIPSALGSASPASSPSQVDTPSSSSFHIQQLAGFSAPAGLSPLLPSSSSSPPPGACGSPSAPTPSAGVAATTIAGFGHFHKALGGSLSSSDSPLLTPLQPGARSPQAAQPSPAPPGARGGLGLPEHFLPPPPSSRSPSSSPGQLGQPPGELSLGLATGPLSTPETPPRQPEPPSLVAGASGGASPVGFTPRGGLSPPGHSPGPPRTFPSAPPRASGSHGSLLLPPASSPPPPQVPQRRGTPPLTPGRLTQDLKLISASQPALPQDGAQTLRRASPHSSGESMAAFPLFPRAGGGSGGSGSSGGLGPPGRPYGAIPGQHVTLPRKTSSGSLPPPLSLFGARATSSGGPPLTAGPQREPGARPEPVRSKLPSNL
Chain of MDR1 (P-glycoprotein) (P08183 whole entry): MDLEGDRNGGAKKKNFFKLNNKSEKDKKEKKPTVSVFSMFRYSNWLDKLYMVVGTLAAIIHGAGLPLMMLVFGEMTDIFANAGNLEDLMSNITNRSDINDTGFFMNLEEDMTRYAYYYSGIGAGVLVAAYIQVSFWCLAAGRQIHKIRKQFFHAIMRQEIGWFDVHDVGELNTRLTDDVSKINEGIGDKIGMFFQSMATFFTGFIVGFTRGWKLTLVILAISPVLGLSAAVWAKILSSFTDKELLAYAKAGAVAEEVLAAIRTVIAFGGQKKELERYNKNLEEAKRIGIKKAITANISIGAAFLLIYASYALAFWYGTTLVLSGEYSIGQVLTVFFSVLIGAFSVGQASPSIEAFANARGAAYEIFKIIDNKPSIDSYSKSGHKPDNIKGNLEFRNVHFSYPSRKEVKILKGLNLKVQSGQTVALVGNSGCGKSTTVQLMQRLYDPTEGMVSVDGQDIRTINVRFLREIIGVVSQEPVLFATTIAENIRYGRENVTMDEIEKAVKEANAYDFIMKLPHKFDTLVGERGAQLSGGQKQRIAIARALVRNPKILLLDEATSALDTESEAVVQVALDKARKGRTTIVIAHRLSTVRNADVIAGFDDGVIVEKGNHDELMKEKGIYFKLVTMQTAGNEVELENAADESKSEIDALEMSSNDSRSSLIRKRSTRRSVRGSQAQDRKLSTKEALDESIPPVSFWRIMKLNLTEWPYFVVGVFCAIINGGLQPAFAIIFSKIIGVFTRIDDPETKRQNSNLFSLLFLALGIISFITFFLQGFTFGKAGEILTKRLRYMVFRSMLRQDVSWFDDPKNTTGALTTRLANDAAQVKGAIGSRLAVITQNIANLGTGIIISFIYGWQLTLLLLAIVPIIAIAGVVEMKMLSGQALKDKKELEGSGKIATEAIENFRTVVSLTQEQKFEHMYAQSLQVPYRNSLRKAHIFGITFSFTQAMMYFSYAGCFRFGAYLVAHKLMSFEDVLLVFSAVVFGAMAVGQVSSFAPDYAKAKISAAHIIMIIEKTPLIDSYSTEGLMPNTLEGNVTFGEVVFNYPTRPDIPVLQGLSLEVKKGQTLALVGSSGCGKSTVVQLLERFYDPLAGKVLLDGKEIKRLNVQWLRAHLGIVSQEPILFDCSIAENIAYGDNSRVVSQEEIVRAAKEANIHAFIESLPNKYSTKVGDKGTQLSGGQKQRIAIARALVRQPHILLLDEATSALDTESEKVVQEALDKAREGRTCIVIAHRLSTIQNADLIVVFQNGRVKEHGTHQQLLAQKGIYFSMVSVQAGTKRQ
Chain of HCN1 (O60741 whole entry, species assumed): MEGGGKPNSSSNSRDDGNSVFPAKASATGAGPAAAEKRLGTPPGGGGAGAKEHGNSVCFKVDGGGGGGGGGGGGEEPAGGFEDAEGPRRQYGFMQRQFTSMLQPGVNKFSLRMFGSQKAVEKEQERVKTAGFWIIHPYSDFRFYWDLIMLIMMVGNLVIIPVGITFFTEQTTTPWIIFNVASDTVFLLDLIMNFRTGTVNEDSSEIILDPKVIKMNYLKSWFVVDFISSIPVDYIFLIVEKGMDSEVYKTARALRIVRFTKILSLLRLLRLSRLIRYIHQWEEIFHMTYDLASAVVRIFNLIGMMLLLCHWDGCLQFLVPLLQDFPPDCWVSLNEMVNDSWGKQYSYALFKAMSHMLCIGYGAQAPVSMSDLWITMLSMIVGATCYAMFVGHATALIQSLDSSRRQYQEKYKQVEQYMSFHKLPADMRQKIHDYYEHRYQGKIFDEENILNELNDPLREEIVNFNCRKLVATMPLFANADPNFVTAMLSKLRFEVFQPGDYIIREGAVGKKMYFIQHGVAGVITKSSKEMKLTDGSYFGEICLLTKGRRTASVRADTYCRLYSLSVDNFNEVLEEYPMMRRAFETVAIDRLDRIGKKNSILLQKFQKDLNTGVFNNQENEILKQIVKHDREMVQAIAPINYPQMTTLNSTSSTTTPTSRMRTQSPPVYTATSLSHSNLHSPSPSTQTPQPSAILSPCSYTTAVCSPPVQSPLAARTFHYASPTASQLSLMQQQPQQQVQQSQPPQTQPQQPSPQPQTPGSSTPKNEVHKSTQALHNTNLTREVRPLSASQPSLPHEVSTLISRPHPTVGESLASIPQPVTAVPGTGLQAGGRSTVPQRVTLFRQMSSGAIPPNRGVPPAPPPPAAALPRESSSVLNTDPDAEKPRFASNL

SMILES	IC50 (HCN2) [nM]	IC50 (HCN1) [nM]	IC50 (HCN4) [µM]	efflux ratio at 1 h, 10 μM (MDR1 (P-glycoprotein))	IC50 (hNav1.5) [µM]	IC50 (hERG channel) [µM]
Cc1ccc(S(C)(=O)=O)nc1C[C@H](N)c1ccccc1-c1noc2ccccc12 [Example 125, (S)-1-[2-(Benzo[d]isoxazol-3-yl)phenyl]-2-[3-methyl-6-(methylsulfonyl)pyridine-2-yl]ethan-1-amine hydrochloride]	240	400	1.2			
N[C@@H](Cc1ccc(F)cn1)c1ccccc1-c1noc2ccccc12 [Example 69, (S)-1-[2-(Benzo[d]isoxazol-3-yl)phenyl]-2-(5-fluoropyridin-2-yl)ethan-1-amine hydrochloride]	500	1400	8.2			
N#Cc1ccc(F)c(C[C@H](N)c2ccccc2-c2noc3ccccc23)n1 [Example 71, (S)-1-[2-(Benzo[d]isoxazol-3-yl)phenyl]-2-(6-cyano-3-fluoropyridin-2-yl)ethan-1-amine formate]	500	4400	3.5			
N[C@@H](Cc1cccc(CCO)n1)c1ccccc1-c1noc2ccccc12 [Example 100, (S)-1-[2-(Benzo[d]isoxazol-3-yl)phenyl]-2-[6-(2-hydroxyethyl)pyridine-2-yl]ethan-1-amine hydrochloride]	2300		> 30	8.7	2.8	12.8
Cc1cccc(-c2noc3ccccc23)c1[C@@H](N)Cc1ccccn1 [Example 84, (S)-1-[2-(Benzo[d]isoxazol-3-yl)-6-methylphenyl]-2-(pyridine-2-yl)ethan-1-amine hydrochloride]	900		27	0.8	5.7	3
N#Cc1ccc2c(-c3ccccc3[C@@H](N)Cc3ccccn3)noc2c1 [Example 29, (S)-1-[2-(6-Cyanobenzo[d]isoxazol-3-yl)phenyl]-2-(pyridine-2-yl)ethan-1-amine]	4300	8900	> 30			
N[C@@H](Cc1ccccn1)c1c(F)cccc1-c1noc2ccccc12 [Example 111, (S)-1-[2-(Benzo[d]isoxazol-3-yl)-6-fluorophenyl]-2-(pyridin-2-yl)ethan-1-amine hydrochloride]	1800		> 30	1	27.9	7.4
N[C@@H](Cc1ccccn1)c1ccccc1-c1noc2ccccc12 [Example 42, (S)-1-[2-(Benzo[d]isoxazol-3-yl)phenyl]-2-(pyridine-2-yl)ethan-1-amine hydrochloride]	1100		> 30	1.5	6.9	3.8
N[C@@H](Cc1ccccn1)c1ccccc1-c1noc2cc(CO)ccc12 [Example 30, (S)-1-[2-(6-Hyroxymethylbenzo[d]isoxazol-3-yl)phenyl]-2-(pyridine-2-yl)ethan-1-amine hydrochloride]	3000	3000	12.8			
COc1ccnc(C[C@H](N)c2ccccc2-c2noc3ccccc23)c1 [Example 70, (S)-1-[2-(Benzo[d]isoxazol-3-yl)phenyl]-2-(4-methoxypyridin-2-yl)ethan-1-amine]	1000	3800	19.1			
COCc1ccc2c(-c3ccccc3[C@@H](N)Cc3ccccn3)noc2c1 [Example 39, (S)-1-[2-(6-Methoxymethylbenzo[d]isoxazol-3-yl)phenyl]-2-(pyridine-2-yl)ethan-1-amine]	4000		> 30	2.7	27.3	7.6
N#Cc1ccc2c(-c3ccccc3[C@@H](N)Cc3cccc(C#N)n3)noc2c1 [Example 95, (S)-1-[2-(6-Cyanobenzo[d]isoxazol-3-yl)phenyl]-2-(6-cyanopyridine-2-yl)ethan-1-amine]	1400		> 30	4.5	> 33	2.9
N[C@@H](Cc1cccc(-c2cn[nH]c2)n1)c1ccccc1-c1noc2ccccc12 [Example 91, (S)-2-[6-(1H-Pyrazol-4-yl)pyridine-2-yl])-1-[2-(benzo[d]isoxazol-3-yl)phenyl]ethan-1-amine hydrochloride]	1000		9.9	23.1	3.4	1.8
CNc1cccc(C[C@H](N)c2ccccc2-c2noc3cc(C#N)ccc23)n1 [Example 97, (S)-1-[2-(6-Cyanobenzo[d]isoxazol-3-yl)phenyl]-2-(6-methylaminopyridine-2-yl)ethan-1-amine dihydrochloride]	2600		13.3	12.2	8.4	0.54
Cc1ccc(-c2noc3ccccc23)c([C@@H](N)Cc2ccccn2)c1 [Example 36, (S)-1-[2-(Benzo[d]isoxazol-3-yl)-5-methylphenyl]-2-(pyridine-2-yl)ethan-1-amine hydrochloride]	1200		> 30	0.8	5.6	5
Cc1ccc(F)c(C[C@H](N)c2ccccc2-c2noc3ccccc23)n1 [Example 73, (S)-1-[2-(Benzo[d]isoxazol-3-yl)phenyl]-2-(3-fluoro-6-methylpyridin-2-yl)ethan-1-amine hydrochloride]	400	500	2.8			
CCc1ccc(C)c(C[C@H](N)c2ccccc2-c2noc3ccccc23)n1 [Example 9, (S)-1-[2-(Benzo[d]isoxazol-3-yl)phenyl]-2-(6-ethyl-3-methylpyridine-2-yl)ethan-1-amine hydrochloride]	260	370	1.7			
N[C@@H](Cc1ncccn1)c1ccccc1-c1noc2ccccc12 [Example 56, (S)-1-[2-(Benzo[d]isoxazol-3-yl)phenyl]-2-(pyrimidine-2-yl)ethan-1-amine]	1200		30	2.5	7	14.4
N#Cc1nc(C[C@H](N)c2ccccc2-c2noc3ccccc23)ccc1F [Example 6, (S)-1-[2-(Benzo[d]isoxazol-3-yl)phenyl]-2-(6-cyano-5-fluoropyridine-2-yl)ethan-1-amine hydrochloride]	390	1800	8.1			
N#Cc1ccc2c(-c3ccccc3[C@@H](N)Cc3cccc(OCCO)n3)noc2c1 [Example 99, (S)-1-[2-(6-Cyanobenzo[d]isoxazol-3-yl)phenyl]-2-[6-(2-hydroxyethoxyl)pyridine-2-yl]ethan-1-amine hydrochloride]	2400		> 30	78.5	18.5	2.1
N[C@@H](Cc1ncccc1F)c1ccccc1-c1noc2ccccc12 [Example 63, (S)-1-[2-(Benzo[d]isoxazol-3-yl)phenyl]-2-(3-fluoropyridin-2-yl)ethan-1-amine hydrochloride]	500	8000	> 30			
Cc1cccc(C[C@H](N)c2ccccc2-c2noc3ccccc23)n1 [Example 114, (S)-1-[2-(Benzo[d]isoxazol-3-yl)phenyl]-2-(6-methylpyridine-2-yl)ethan-1-amine hydrochloride]	620	4500	9			

— patent publication US20240190854A1, “PYRIMIDINE OR PYRIDINE DERIVATIVES USEFUL AS HCN2 MODULATORS” (King's College London, priority 2021, published 2024)
